Tests used:
[1] = system: primary human dermal fibroblasts (HDF); experiment: Primary human dermal fibroblast (HDF) proliferation assay (2D), SRB staining; type: cell-based
Protocol: Primary human dermal fibroblasts (HDF) were purchased from CELLnTEC, Bern. They were routinely grown in Dulbecco's modified Eagle's medium (DMEM) containing 10% FCS, 2 mM glutamine, and 100 U/ml penicillin/100 μg/ml streptomycin. Media, antibiotics, and glutamine were bought from Lonza. The cells were used at passage 10. Cells were trypsinized and seeded at 5000 cells/well in 200 μl into the inner wells of 96-well plates. The outer wells were loaded with sterile water. The cells were allowed to adhere overnight and then incubated for 72 hours at 37° C. under the following conditions: graded compound concentrations or 20 ng/ml PDGF-BB (Tonbo Biosciences # TO-21-8501-U010) in the absence or presence of different dilutions of sterile-filtered WE in medium. For negative control samples, 200 μl medium was added instead of specific stimuli. Alternatively, the cells were seeded into 384-well plates at 2500 cells/well together with test compounds or growth factors and WE or medium in a total volume of 50 μl. […]
Total cellular protein was determined as a measure of cell number by staining the fixed cells with sulforhodamine B (SRB, Sigma). […] After drying, the dye was eluted with 10 mM Tris.HCl, pH8.5, and absorbance was measured either at 550 or 492 nm for lower and higher cell densities, respectively. The average absorbance of the sample representing the day 1 starting cell number (for 96-well plates) was subtracted from the absorbance values of the WE-treated cells.
All experiments were carried out in triplicate for each sample and concentration, and means±standard deviation (SD) were used for the evaluation of the experiment. Results are expressed as percentage of control values for unstimulated cells.
For screening with WE, compound results were calculated as % proliferation of untreated and unstimulated control (=100%), and the cut-off for a positive hit was defined as % average proliferationWE+3*standard deviation, as shown in FIG. 5.

[2] = system: chronic wounds; conditions: non-steroidal anti-inflammatory drug; cited from earlier work

CNC(=O)[C@H](Cc1c[nH]c2ccccc12)NC(=O)[C@@H](CC(=O)NO)CC(C)C [GM6001]
effect on the effect of wound exudate on HDF proliferation ([1]; in presence of WE #49 (highest MMP activity), FIG. 22): partially reverses | effect on HDF proliferation ([1]; medium or WE without MMP activity, FIG. 22): no effect

CC(C)Cc1ccc(C(C)C(=O)O)cc1 (stereo not shown) [ibuprofen]
effectiveness in wounds [2]: only effective in ameliorating wound pain

PDGF
effect on the growth inhibitory effect of wound exudate in 2D fibroblast proliferation ([1]; in presence of aggressive, non-healing WE #49, FIG. 21): only partially reverses
